Literature values, collected in PMC8909834, “An Orally Bioavailable and Highly Efficacious Inhibitor of CDK9/FLT3 for the Treatment of Acute Myeloid Leukemia” (Cancers, 2022).

Tested on: CDK9
Conditions: cited from earlier work; for selectivity over other CDKs: CDK9 vs other CDKs

Compound	selectivity over other CDKs	IC50 [nM]
CC(=O)N[C@@H]1CCC[C@H](C(=O)Nc2cc(-c3cnn4c3CC(C)(C)C4)c(Cl)cn2)C1 [ADZ4573]	> 10 fold	< 4
